The values that follow come from patent US10914728B2, “Bioassay for insulin formulations” (priority 2016, dated 2021).

What all share (type): cell-based
In test [1] the test system is H4IIE cells. Put plainly: Sensitivity assessment: ERK phosphorylation, H4IIE cells, Western blotting. To be noted: insulin for 30 minutes, read-out: Approximate EC50 values, ERK phosphorylation. The method, then: (§1) For signalling, cells were treated with vehicle or increasing doses of insulin for 30 minutes. Cells were lysed in appropriate buffers and phosphorylation of the insulin receptor, Erk, Akt or Foxo was determined by Western blotting or ELISA, as specified. For mitogenicity, H4IIE cells were incubated with vehicle or increased doses of insulin and cellular growth was measured by detection of thymidine incorporation. […] Uptake and conversion of glucose into lipids were measured after 2 hours by extracting lipids into Microscint-e and measuring radioactivity using a top counter.
(§2) For all methods: to determine EC50 values, data were fitted to a nonlinear 4 parameter regression curve using Graphpad Prism software.

Test [2] relates to H4IIE cells. Put plainly: Mitogenicity (thymidine incorporation), H4IIE cells. The settings on record: radioactively labelled thymidine, read-out: Approximate EC50 values, Mitogenecity (thymidine incorporation). The protocol:
as §1, §2
(Uptake of a labelled nucleoside into DNA is a usual measure of proliferation.)

The next test has as its system primary rat adipocytes. Put plainly: Rat free fat cell lipogenesis. To be noted: Isolated primary rat adipocytes; H3 labelled glucose; 2 hours; read-out: Approximate EC50 values, Rat Free Fat Cell lipogenesis. The protocol: as §1, §2

Take human insulin: the EC50 with H4IIE cells [1] is roughly 2.3 nM; in the test on H4IIE cells [2] it was roughly 1 nM; in the test on primary rat adipocytes it was roughly 0.02 nM.
